Data on one substance can be found in patent publication US8105980B1, “Method of increasing the content of flavonoids and phenolic substances substances inplants” (Basf Aktiengesellschaft, priority 1999, dated 2012).

One experiment concerns shoot tissue of apples. The note with it: shoot tissue of apples after exposure; cited from earlier work.
A further experiment relates to Vines cv. “Dornfelder”. The experiment can be described thus: Treatment of Dornfelder vines: ripeness, acid, pigmentation and taste of harvested grapes. In kind it is in vivo, grapevine. The method, then:
Vines cv. “Dornfelder” were treated twice at different points in time with the formulation BAS 125 10W, which contains prohexadione-calcium. 1000 g of prohexadione-calcium in 1000 l of spray mixture were applied per ha per treatment.
The 1st application was carried out at developmental stage 73 before the berries developed their color, and the 2nd application 10 days thereafter.
Untreated control: 69° Oechsle, acid: 7.3 g/l; treated control: 67° Oechsle, acid: 7.4 g/l.

The subject of a further experiment is apple tissue cultures. The settings on record: cited from earlier work.
The subject of experiment [1] is Apple plants cv. “Weirouge”. Kind of experiment: Eriodictyol and luteoliflavan content in young apple leaves after treatment (HPLC). In kind it is in vivo. The note with it: for Eriodictyol / Luteoliflavan: 250 ppm to runoff, youngest fully developed leaf. The method, then: Apple plants cv. “Weirouge” were grown under controlled-environment conditions and treated to runoff point with 250 ppm prohexadione-calcium (formulated as BAS 125 10 W=wettable granules, content 10%). At various points in time after the treatment, the youngest fully developed leaf was harvested from each individual shoot. The freeze-dried leaves which had been ground using a pestle and mortar were extracted with methanol. Flavonoids and related compounds in the concentrated extract were analyzed by HPLC. Separation was performed on Hypersil ODS (particle size 3 μm) on a 250×4 mm column. Elution was carried out at a flow rate of 0.5 ml per minute, and mixtures of formic acid (5% in water) and methanol, increased stepwise from a ratio of 95:5 to 10:90 (v/v) were used. Phenolic acids and flavonols were detected at 280 nm. Flavan-3-ols were determined by post-column derivatization with p-dimethylaminocinnamaldehyde at 640 nm. For methodological details, see Treutter et al. (1994), Journal of Chromatography A 667, 290-297.

[2] abbreviates: two applications of 1000 g/ha in 1000 l spray mixture (BAS 125 10W), at harvest.

Take prohexadione-calcium: in the experiment on shoot tissue of apples, the “catechin and cyanidin in treated tissue” value is given as “not detectable in the treated tissue, or found in considerably reduced amounts only”; the “luteoliflavan and eriodictyol amounts” value is recorded as “relatively large amounts”. For the same substance, in the experiment on Vines cv. “Dornfelder” (compared with untreated grapes), the “pigmentation of treated grapes” value was “less pronounced” and the “taste of treated grapes” value is on record as “no difference was observed”. In addition, in the experiment with Vines cv. “Dornfelder” (setting [2]), the “acid of harvested grapes” value was determined as 7.4 g/L and the “degree of ripeness of harvested grapes” value worked out at 67 ° Oechsle. Also, in the experiment with apple tissue cultures, the “content of phenolic substances” value is recorded as “increased several times”. For the same substance, in experiment [1] (12 days after treatment), the Eriodictyol is recorded as 17 g/kg dry matter and the Luteoliflavan came out at 0 g/kg dry matter. In addition, in experiment [1] (21 days after treatment), the Eriodictyol was determined as 27 g/kg dry matter and the Luteoliflavan stood at 34 g/kg dry matter. The “eriodictyol concentration in treated leaves” value in experiment [1] (after 12 and 21 days) is recorded as “markedly increased”.
